In patent US20200369626A1 (Washington University, priority 2019, published 2020):

biological target: T1, S1PR2 (Homo sapiens, UniProt O95136); test: competitive [^32P]S1P binding assay on cell membranes, S1PR2; details: IC50 S1PR2, Table 5
T1 construct: purchased
T1 sequence (O95136 whole entry): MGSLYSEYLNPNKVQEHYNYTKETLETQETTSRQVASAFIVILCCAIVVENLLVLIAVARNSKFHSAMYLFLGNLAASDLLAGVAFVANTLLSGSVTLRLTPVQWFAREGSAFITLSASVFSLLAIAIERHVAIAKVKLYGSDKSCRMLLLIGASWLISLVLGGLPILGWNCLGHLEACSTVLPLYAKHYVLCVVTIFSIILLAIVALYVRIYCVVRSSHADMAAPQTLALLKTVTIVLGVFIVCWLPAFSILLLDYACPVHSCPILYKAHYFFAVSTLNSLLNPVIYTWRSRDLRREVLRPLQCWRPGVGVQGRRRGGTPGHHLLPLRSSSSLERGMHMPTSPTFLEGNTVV

SMILES	IC50 [nM]
CNC(=O)c1ccc(Oc2cc(NC(=O)N3CCC4(CC3)OCCO4)cc(C(F)(F)F)c2)cc1 [TZ51-022]	> 1000

same assay, conditions: Table 5; read-out: IC50 S1PR2

SMILES	IC50 [nM]
CC(C)CC1(O)CCN(c2nc3cc(Oc4ccc(F)cc4)cc([N+](=O)[O-])c3o2)CC1 [TZ57-045]	> 1000
COc1ccc(-n2c(=O)c3ccccc3n(CC(=O)Nc3cc(Cl)c(OC)cc3OC)c2=O)cc1 [TZ59-110]	> 1000
COc1cc(OC)c(NC(=O)CN2C(=O)N(CC(=O)Nc3ccccc3OC)Cc3ccccc32)cc1Cl [TZ62-018]	> 1000
COc1ccc(C(=O)Cn2c(=O)n(CCCC(=O)N3CCCC3)c(=O)c3ccccc32)cc1Cl [TZ62-051]	> 1000
CCOc1ccc(C(=O)Cn2c(=O)n(C)c(=O)c3ccccc32)cc1Cl [TZ62-098]	> 1000
COc1cc(OC)c(NC(=O)CN2C(=O)N(CC(=O)O)Cc3ccccc32)cc1Cl [TZ62-017]	> 1000
CNC(=O)c1ccc(Oc2cc(NC(=O)N3CCC(C)(O)CC3)cc(C(F)(F)F)c2)cc1 [TZ51-057]	> 1000
CNC(=O)c1ccc(Oc2cc(NC(=O)N3CCC(O)(C(C)C)CC3)cc(C(F)(F)F)c2)cc1 [TZ51-044]	> 1000
COc1ccc(C(=O)Cn2c(=O)n(CCCC(=O)NC3CCCC3)c(=O)c3ccccc32)cc1Cl [TZ62-049]	396 ± 78
CCC(CC)CC1(O)CCN(C(=O)Nc2ccc(Oc3ccc(S(C)(=O)=O)cc3)cc2)CC1 [TZ57-104]	> 1000
COc1cc(OC)c(NC(=O)Cn2c(=O)n(CC(=O)Nc3ccc(OCCF)cc3)c(=O)c3ccccc32)cc1Cl [TZ65-049]	10 ± 2.4
CCC(CC)CC1(O)CCN(C(=O)Nc2cc(OCCCF)cc(Oc3ccc(C(=O)NC)cc3)c2)CC1 [TZ51-133]	> 1000
CNC(=O)c1ccc(Oc2cc(NC(=O)N3CCC(O)(CC(C)C)CC3)cc(C(F)(F)F)c2)cc1 [TZ51-108]	> 1000
COc1cc(OC)c(NC(=O)Cn2c(=O)n(CC(=O)NCCO)c(=O)c3ccccc32)cc1Cl [TZ62-007]	> 1000
CCC(CC)CC1(O)CCN(C(=O)Nc2cc(C(C)C)c3c(C)nn(C)c3n2)CC1 [TZ59-023]	> 1000
CC(C)CC1(O)CC(C(=O)Nc2cc(Oc3ccc(F)cc3)cc(Oc3ccc(S(C)(=O)=O)cc3)c2)C1 (stereo not shown) [TZ57-121]	654 ± 349
COc1ccc(C(=O)Cn2c(=O)n(CCCC(=O)NC3CCCC3)c(=O)c3cc(Cl)ccc32)cc1Cl [TZ62-039]	> 1000
COc1ccc(C(=O)Cn2c(=O)n(CC(=O)Nc3ccccc3OC)c(=O)c3ccccc32)cc1 [TZ62-019]	> 1000
COc1ccccc1NC(=O)Cn1c(=O)c2ccccc2n(CC(=O)Nc2cc(Cl)nc(Cl)c2)c1=O [TZ62-093]	> 1000
CC(C)CC1(O)CCN(C(=O)Nc2cccc(NC(=O)N3CCC(O)(CC(C)C)CC3)c2)CC1 [TZ57-115]	> 1000
COc1ccc2c(c1)c(=O)c1ccccc1n2CC(=O)Nc1cc(Cl)c(OC)cc1OC [TZ65-032]	> 1000
CCC(CC)CC1(O)CCN(C(=O)Nc2cc(Oc3ccc(F)cc3)cc(OC3CCN(S(C)(=O)=O)CC3)c2)CC1 [TZ57-081]	292 ± 121

SMILES	IC50 [nM]
CC(C)C(O)C1CCN(C(=O)Nc2cc(Oc3ccc(F)cc3)cc(Oc3ccc(S(C)(=O)=O)cc3)c2)CC1 (stereo not shown) [TZ57-065]	> 1000
CCOc1ccc(C(=O)Cn2c(=O)n(CCCC(=O)N3CCCC3)c(=O)c3cc(Cl)ccc32)cc1Cl [TZ62-052]	> 1000
CCC(CC)CC1(O)CCN(C(=O)Nc2cc(C(=O)c3ccc(S(C)(=O)=O)cc3)cc(C(F)(F)F)c2)CC1 [TZ59-092]	700 ± 111
CCC(CC)CC1(O)CCN(C(=O)Nc2cc(F)cc(C(O)c3ccc(S(C)(=O)=O)cc3)c2)CC1 (stereo not shown) [TZ59-080]	> 1000
CCC(CC)CC1(OC)CCN(C(=O)Nc2cc(Oc3ccc(F)cc3)cc(Oc3ccc(S(C)(=O)=O)cc3)c2)CC1 [TZ57-054]	> 1000
CCC(CC)CC1(O)CCN(C(=O)Nc2cc(NC(=O)N3CCC(O)(CC(CC)CC)CC3)cc(C(F)(F)F)c2)CC1 [TZ59-039]	> 1000
CS(=O)(=O)c1ccc(Oc2cc(NC(=O)N(CCO)C3CCCCC3)cc(Oc3ccc(F)cc3)c2)cc1 [TZ57-062]	> 1000
CCC(CC)CC1(O)CCN(C(=O)Nc2ccc(Oc3ccc(F)cc3)cc2)CC1 [TZ57-103]	> 1000
CC(C)CC1(O)CCN(C(=O)Nc2cc(Oc3ccc(F)cc3)cc(Oc3ccc(S(C)(=O)=O)cc3)c2)C1 (stereo not shown) [TZ57-120]	122 ± 29
COc1ccccc1NC(=O)Cn1c(=O)c2ccccc2n(CC(=O)c2ccccc2OC)c1=O [TZ62-020]	> 1000
CCC(CC)CC1(O)CCN(C(=O)Nc2nc(Oc3ccc(F)cc3)nc(Oc3ccc(F)cc3)n2)CC1 [TZ51-150]	> 1000
COc1ccccc1NC(=O)Cn1c(=O)[nH]c2ccccc2c1=O [TZ62-004]	> 1000
CNC(=O)c1ccc(Sc2cc(NC(=O)N3CCC(O)(CC(C)C)CC3)cc(C(F)(F)F)c2)cc1 [TZ51-121]	421 ± 90
CCC(CC)CC1(O)CCN(C(=O)Nc2cc(C#N)cc(Oc3ccc(S(C)(=O)=O)cc3)c2)CC1 [TZ59-014]	> 1000
CCC(CC)CC1(O)CCN(C(=O)Nc2cc(Oc3ccc(B4OC(C)(C)C(C)(C)O4)cc3)cc(Sc3ccc(S(C)(=O)=O)cc3)c2)CC1 [TZ57-150]	> 1000
COc1cccc(NC(=O)Cn2c(=O)c3ccccc3n(CC(=O)Nc3cc(Cl)c(OC)cc3OC)c2=O)c1 [TZ59-131, N-(5-Chloro-2,4-dimethoxyphenyl)-2-(3-(2-((3-methoxyphenyl)amino)-2-oxoethyl)-2,4-dioxo-3,4-dihydroquinazolin-1(2H)-yl)acetamide]	39.1 ± 7
CC(C)CC1(O)CCN(C(=O)Nc2cc(Oc3ccc(S(C)(=O)=O)cc3)cc(Oc3ccc(F)nc3)c2)CC1 [TZ57-040]	211 ± 32
CC(C)C1(O)CCN(C(=O)Nc2cc(Oc3ccc(S(C)(=O)=O)cc3)cc(C(F)(F)F)c2)CC1 [TZ51-045]	> 1000
CNC(=O)c1ccc(Oc2cc(NC(=O)N3CCC(O)CC3)cc(C(F)(F)F)c2)cc1 [TZ51-041]	> 1000
COc1ccc(C(=O)Cn2c(=O)n(CCCC(=O)N3CCCC3)c(=O)c3cc(Cl)ccc32)cc1Cl [TZ62-053]	> 1000
CCC(CC)CC1(O)CCN(C(=O)Nc2cc(OCCCF)cc(Oc3ccc(F)cc3)c2)CC1 [TZ51-139]	> 1000

same assay, conditions: [^32P]S1P competition, IC50 ± SD, Table 1 (2a-l, 4a-h); read-out: IC50 (binding potency toward S1PR2)

SMILES	IC50 [nM]
CNC(=O)Cn1c(=O)c2ccccc2n(CC(=O)Nc2cc(Cl)c(OC)cc2OC)c1=O [Compound 2k]	376 ± 91
COc1cc(OC)c(NC(=O)Cn2c(=O)n(CC(=O)NCCc3cccnc3)c(=O)c3ccccc32)cc1Cl [Compound 2f]	58.7 ± 9
COc1cc(OC)c(NC(=O)Cn2c(=O)n(CC(=O)NCCOCCO)c(=O)c3ccccc32)cc1Cl [Compound 2i]	91.4 ± 17.6
COc1cc(OC)c(NC(=O)Cn2c(=O)n(CC(=O)Nc3cc(Cl)nc(Cl)c3)c(=O)c3ccccc32)cc1Cl [Compound 2g]	> 1000

same assay, conditions: [^32P]S1P competition, IC50 ± SD, second Table 1; read-out: S2PR2 IC50

SMILES	IC50 [nM]
CNC(=O)c1ccc(Oc2cc(NC(=O)N3CCC(O)(C(C)C)CC3)cc(C(F)(F)F)c2)cc1 [Compound 25e, 4-Hydroxy-4-isopropyl-N-(3-(4-(methylcarbamoyl)phenoxy)-5-(trifluoromethyl)phenyl)piperidine-1-carboxamide]	> 1000
CNC(=O)c1ccc(Oc2cc(NC(=O)N3CCC(O)(CC(C)C)CC3)cc(C(F)(F)F)c2)cc1 [Compound 25g, 4-Hydroxy-4-isobutyl-N-(3-(4-(methylcarbamoyl)phenoxy)-5-(trifluoromethyl)phenyl)piperidine-1-carboxamide]	359
CC(C)C1(O)CCN(C(=O)Nc2cc(Oc3ccc(S(C)(=O)=O)cc3)cc(C(F)(F)F)c2)CC1 [Compound 25f, 4-Hydroxy-4-isopropyl-N-(3-(4-(methylsulfonyl)phenoxy)-5-(trifluoromethyl)phenyl)piperidine-1-carboxamide]	> 1000
CCC(CC)CC1(O)CCN(C(=O)Nc2cc(OCCCF)cc(Oc3ccc(F)cc3)c2)CC1 [Compound 11b, 4-(2-Ethylbutyl)-N-(3-(4-fluorophenoxy)-5-(3-fluoropropoxy)phenyl)-4-hydroxypiperidine-1-carboxamide]	> 1000
CCC1(O)CCN(C(=O)Nc2cc(Oc3ccc(C(=O)NC)cc3)cc(C(F)(F)F)c2)CC1 [Compound 25c, 4-Ethyl-4-hydroxy-N-(3-(4-(methylcarbamoyl)phenoxy)-5-(trifluoromethyl)phenyl)piperidine-1-carboxamide]	> 1000
CCC1(O)CCN(C(=O)Nc2cc(Oc3ccc(S(C)(=O)=O)cc3)cc(C(F)(F)F)c2)CC1 [Compound 25d, 4-Ethyl-4-hydroxy-N-(3-(4-(methylsulfonyl)phenoxy)-5-(trifluoromethyl)phenyl)piperidine-1-carboxamide]	> 1000
CC1(O)CCN(C(=O)Nc2cc(Oc3ccc(S(C)(=O)=O)cc3)cc(C(F)(F)F)c2)CC1 [Compound 25b, 4-Hydroxy-4-methyl-N-(3-(4-(methylsulfonyl)phenoxy)-5-(trifluoromethyl)phenyl)piperidine-1-carboxamide]	> 1000
CNC(=O)c1ccc(Oc2cc(NC(=O)N3CCC(C)(O)CC3)cc(C(F)(F)F)c2)cc1 [Compound 25a, 4-Hydroxy-4-methyl-N-(3-(4-(methylcarbamoyl)phenoxy)-5-(trifluoromethyl)phenyl)piperidine-1-carboxamide]	> 1000
CNC(=O)c1ccc(Oc2cc(NC(=O)N3CC(O)(CC(C)C)C3)cc(C(F)(F)F)c2)cc1 [Compound 25i, 3-Hydroxy-3-isobutyl-N-(3-(4-(methylcarbamoyl)phenoxy)-5-(trifluoromethyl)phenyl)azetidine-1-carboxamide]	> 1000

same assay, conditions: [^32P]S1P competition; read-out: IC50 value, S1PR2 binding

SMILES	IC50 [nM]
CCC(CC)CC1(O)CCN(C(=O)Nc2cc(OCCCF)cc(Oc3ccc(F)cc3)c2)CC1 [Compound 11b, 4-(2-Ethylbutyl)-N-(3-(4-fluorophenoxy)-5-(3-fluoropropoxy)phenyl)-4-hydroxypiperidine-1-carboxamide]	> 1000
CNC(=O)c1ccc(Oc2cc(NC(=O)N3CC(O)(CC(C)C)C3)cc(C(F)(F)F)c2)cc1 [Compound 25i, 3-Hydroxy-3-isobutyl-N-(3-(4-(methylcarbamoyl)phenoxy)-5-(trifluoromethyl)phenyl)azetidine-1-carboxamide]	> 1000
COc1cc(OC)c(NC(=O)Cn2c(=O)n(CC(=O)Nc3ccc(O)cc3)c(=O)c3ccccc32)cc1Cl [Compound 2e]	2.6 ± 0.3
CCC(CC)CC1(O)CCN(C(=O)Nc2cc(Oc3ccc(S(C)(=O)=O)cc3)cc(C(F)(F)F)c2)CC1 [Compound 21f, 4-(2-Ethylbutyl)-4-hydroxy-N-(3-(4-(methylsulfonyl)phenoxy)-5-(trifluoromethyl)phenyl)piperidine-1-carboxamide]	270
